Article PMC11191602, “A novel and selective fluorescent ligand for the study of adenosine A2B receptors” (Pharmacology Research & Perspectives, 2024)
Where two headings read alike, the source gives them in different places.

Tests used:
[1] = target: T1, human A2BR tagged with N‐terminal nanoluciferase (NLuc‐A2BR) (Homo sapiens, UniProt P29275); experiment: NanoBRET saturation binding of PSB603‐BY630 in live HEK293G cells stably expressing NLuc‐A2BR; conditions: non‐specific binding defined with 1 μM MRS‐1706, 1 h 37°C, mean of five experiments
T1 construct: expressed in transfected cells
T1 sequence (P29275 1-332): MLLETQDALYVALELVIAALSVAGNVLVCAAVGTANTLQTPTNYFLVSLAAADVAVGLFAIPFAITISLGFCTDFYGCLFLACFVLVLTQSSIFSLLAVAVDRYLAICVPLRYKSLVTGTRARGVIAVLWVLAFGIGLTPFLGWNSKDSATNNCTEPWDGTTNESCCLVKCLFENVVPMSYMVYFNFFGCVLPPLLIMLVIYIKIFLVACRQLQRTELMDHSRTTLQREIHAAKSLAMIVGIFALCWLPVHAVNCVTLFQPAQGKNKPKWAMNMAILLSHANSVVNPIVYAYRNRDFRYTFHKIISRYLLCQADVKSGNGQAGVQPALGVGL
Method: Saturation and competition binding assays were performed as previously described.[36] Briefly, cells were seeded in 96‐well white clear‐bottomed Greiner plates pre‐treated with 10 μg/mL poly‐D‐lysine (Sigma‐Aldrich, Missouri USA) at a density of 30 000–35 000 cells per well in DMEM supplemented with 10% FBS. The following day medium was removed and cells were incubated with PSB603‐BY630 in the presence or absence of 1 μM MRS1706 (saturation binding assays) or competing ligand in the presence of 50 nM PSB603‐BY630 (competition binding assays) in HEPES buffered saline solution (HBSS; 145 mM NaCl, 5 mM KCl, 1.3 mM CaCl2, 1 mM MgSO4, 10 mM HEPES, 2 mM sodium pyruvate, 1.5 mM NaHCO3, 10 mM D‐glucose, pH 7.45) with 0.1% bovine serum albumin for 1 h at 37°C. […] The resulting bioluminescence resonance energy transfer (BRET) was measured using a PHERAstar FS plate reader (BMG Labtech) at 37°C. For each well, filtered light emissions at 460 nm (80 nm bandpass) and >610 nm (longpass) for the BODIPY630/650 ligand were simultaneously measured. BRET ratios were calculated by dividing the 610 nm emission by the 460 nm emission. […] For kinetic experiments, cells were preincubated for 10 min with 1:400 dilution of furimazine prior to addition of 200 nM PSB603‐BY630 and BRET ratios determined every 0.5 min. […]
Data were analyzed using Prism 7.4 software (GraphPad, San Diego, USA). […]

NLuc‐A2BR = target: T2, NLuc‐A2BR (Homo sapiens, UniProt P29275); experiment: NanoBRET ligand‐binding kinetics of 200 nM PSB603‐BY630 in HEK293G cells expressing NLuc‐A2BR
T2 construct: expressed in transfected cells
T2 sequence (P29275 1-332): T1 sequence (P29275 1-332)
Method: (§1) Saturation and competition binding assays were performed as previously described.[36] Briefly, cells were seeded in 96‐well white clear‐bottomed Greiner plates pre‐treated with 10 μg/mL poly‐D‐lysine (Sigma‐Aldrich, Missouri USA) at a density of 30 000–35 000 cells per well in DMEM supplemented with 10% FBS. The following day medium was removed and cells were incubated with PSB603‐BY630 in the presence or absence of 1 μM MRS1706 (saturation binding assays) or competing ligand in the presence of 50 nM PSB603‐BY630 (competition binding assays) in HEPES buffered saline solution (HBSS; 145 mM NaCl, 5 mM KCl, 1.3 mM CaCl2, 1 mM MgSO4, 10 mM HEPES, 2 mM sodium pyruvate, 1.5 mM NaHCO3, 10 mM D‐glucose, pH 7.45) with 0.1% bovine serum albumin for 1 h at 37°C. The NanoLuc substrate, furimazine (Promega Corporation, Wisconsin, USA), was then added to each well (1:400 dilution) and the plate was incubated for 10 min in the dark at 37°C. The resulting bioluminescence resonance energy transfer (BRET) was measured using a PHERAstar FS plate reader (BMG Labtech) at 37°C. For each well, filtered light emissions at 460 nm (80 nm bandpass) and >610 nm (longpass) for the BODIPY630/650 ligand were simultaneously measured. BRET ratios were calculated by dividing the 610 nm emission by the 460 nm emission. All conditions were performed in 2–6 replicates within each plate. For kinetic experiments, cells were preincubated for 10 min with 1:400 dilution of furimazine prior to addition of 200 nM PSB603‐BY630 and BRET ratios determined every 0.5 min. At 60 min, 10 μM MRS‐1706 was added and the ligand‐binding kinetics followed for a further 60 min.
For kinetic binding experiments, the BRET ratio obtained in the absence of fluorescent ligand was determined for each time point and subtracted from the total binding to obtain baseline‐corrected values for total binding at each time point. 60 min after addition of 200 nM PSB603‐BY630, 10 μM MRS‐1706 was added and the dissociation data fitted to the following equation to obtain values for the dissociation rate constant (k off) in min^−1: Y=Yo−NS.e^−koff.t+NS where [Yo] is the binding at time 60 min (when 10 μM MRS‐1706 was added), NS is the non‐specific binding at infinite time, k off is dissociation rate constant. The residence time in min was then calculated as the reciprocal of k off.

human NLuc‐A1R = target: T3, human NLuc‐A1R (Homo sapiens, UniProt P30542); experiment: NanoBRET saturation binding in stable HEK293T cell line expressing NLuc‐A1R; conditions: non‐specific defined with 1 μM SLV320; PSB603‐BY630 at concentrations up to 500 nM
T3 construct: expressed in transfected cells
T3 sequence (P30542 1-326): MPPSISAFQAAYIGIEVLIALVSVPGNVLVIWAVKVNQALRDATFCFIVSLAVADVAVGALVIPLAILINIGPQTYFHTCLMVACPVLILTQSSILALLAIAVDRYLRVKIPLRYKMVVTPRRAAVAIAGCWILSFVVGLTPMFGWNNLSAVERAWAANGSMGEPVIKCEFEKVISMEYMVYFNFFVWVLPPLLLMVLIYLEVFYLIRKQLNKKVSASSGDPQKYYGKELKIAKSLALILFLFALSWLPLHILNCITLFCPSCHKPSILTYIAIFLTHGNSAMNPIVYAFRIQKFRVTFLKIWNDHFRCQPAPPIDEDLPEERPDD
Method: as §1, with “The following day medium was removed and cells were incubated with PSB603‐BY630 in the presence or absence of 1 μM MRS1706 (saturation binding assays) or competing ligand in the presence of 50 nM PSB603‐BY630 (competition binding assays) in HEPES buffered saline solution (HBSS; 145 mM NaCl, 5 mM KCl, 1.3 mM CaCl2, 1 mM MgSO4, 10 mM HEPES, 2 mM sodium pyruvate, 1.5 mM NaHCO3, 10 mM D‐glucose, pH 7.45) with 0.1% bovine serum albumin for 1 h at 37°C.” left out

Kd [1]: 18.3 nM
koff (NLuc‐A2BR; 200 nM PSB603‐BY630, 10 μM MRS‐1706 at 60 min, single representative experiment (Figure 5), read-out: K off in representative experiment (converted)): 0.000933 s⁻¹
time to reach binding equilibrium (NLuc‐A2BR; 200 nM PSB603‐BY630, 37°C): ≤ 60 min
koff (NLuc‐A2BR; 200 nM PSB603‐BY630, dissociation initiated with 10 μM MRS‐1706 at 60 min, 37°C, 5 experiments, read-out: dissociation rate constant k off (mean) (converted)): 0.00108 s⁻¹
residence time (NLuc‐A2BR; reciprocal of k off, 37°C): 15.4 min
specific binding to NLuc‐A1R (human NLuc‐A1R): negligible
SMILES: CCCn1c(=O)[nH]c2[nH]c(-c3ccc(S(=O)(=O)N4CCN(c5ccc(OCCNC(=O)CCCCCNC(=O)COc6ccc(/C=C/C7=[N+]8C(=Cc9ccc(-c%10cccs%10)n9[B-]8(F)F)C=C7)cc6)cc5)CC4)cc3)nc2c1=O [PSB603‐BY630]
